Source: US20100190743A1, “Method and Composition for Treatment of a Mucosal Tissue Disorder” (Chitogenics, Inc., priority 2005, published 2010)

Tests used:
interstitial cystitis = conditions: cited from earlier work
[1] = test system: rat model of Interstitial Cystitis; assay: Efficacy of sNOCC in reducing inflammation in a rat model of interstitial cystitis (Example 2), bladder histology inflammatory score; format: in vivo
Protocol: Animals: Female Sprague-Dawley rats (225-250 g) were purchased from Charles River Laboratories. Animals were provided with food and water ad libitum. Intra-vesicular inoculation of protamine sulfate (PS) and LPS: Rats were anesthetized with sodium pentobarbital (65 mg/kg). The surface area around the urethral opening was swabbed with 70% isopropyl alcohol and Betadine. A lubricated sterile catheter (PE-50), handled with sterile gloves, was inserted into the bladder through the urethral opening. The catheter was connected to a 1 ml syringe via a 25 G needle and the bladder was emptied as described above. One group of rats was inoculated with 1 ml PS (10 mg/ml) in phosphate buffered saline (PBS) into the bladder via the catheter. After 45 minutes, the bladders were emptied, washed with PBS, then given a second treatment with 1 ml LPS (750 μg/ml) in PBS for 30 minutes. […]
The parameters of inflammation measured were: increased venous blood vessel size and volume (venous congestion), edema, cellular infiltration, and epithelial damage. […] The parameters were measured by a blinded observer using a five point score with 0 being the least severe and 5 being the most severe. A total inflammatory score was calculated for each rat by adding together the scores of the four inflammatory parameters. A mean total inflammatory score was calculated for each group. […]

**Q.** What does the source list for `C[S+](C)[O-]` [DMSO, dimethylsulfoxide]?
**A.** average length of response (interstitial cystitis; instillation into the bladder for six to eight weeks): six; response rate (interstitial cystitis; instillation into the bladder for six to eight weeks, placebo 18%): 53%

**Q.** With `Nc1ccc(O)c(C(=O)O)c1` [saline + 5ASA, 5-aminosalicylic acid] as the molecule, how does the “Mean Inflammatory Score (±SEM)” value ([1]; agent 1 ml intravesical 1 day after PS/LPS, sacrifice day 5 post inoculation, total of four parameters each scored 0-5, saline control 12.7 (±1.5)) read?
**A.** Its value is 7.9 (±1.8).

**Q.** What about the “% reduction of inflammation from saline treated control” value ([1]; from mean inflammatory score, day 5 post inoculation) of the same molecule?
**A.** The value was 37.5%.

**Q.** For oxychlorosene sodium, which “results relative to instillation of DMSO” value (interstitial cystitis; Messing et al. 1978) is on record?
**A.** Its value is “Equivalent results”.
